Article PMC11434342, “Novel Autotaxin Inhibitor ATX-1d Significantly Enhances Potency of Paclitaxel—An In Silico and In Vitro Study” (Molecules, 2024)

What follows are molecules tested against T1, autotaxin (ATX) (Homo sapiens, UniProt Q13822) (assay: FS-3 fluorogenic substrate hydrolysis, dose-response with purified recombinant ATX ([…])). Conditions: not given.
T1 construct: gene ENPP2; human recombinant ATX (hATX)
Assay type: biochemical

Structure (SMILES) | IC50
CCCCCCCCCCCCCCCc1ccc(CP(=O)(O)O)cc1 [BMP-22, reference compound] | 0.2 ± 0.1 µM

What follows are molecules tested against T1, autotaxin (ATX) (assay: biochemical). Conditions: read-out: % inhibition in ATX assay at 10 µM.
Parameters: Inhibition of hydrolysis of fluorogenic lysophospholipid substrate FS-3 by recombinant human autotaxin, fluorescence read-out
Procedure: Human recombinant ATX (hATX) was purified as previously described. The enzymatic activity of ATX was assessed by measuring the hydrolysis of the synthetic lipid-like FRET-based substrate FS-3 from Echelon Biosciences. Compounds predicted to have potential inhibitory effects through molecular docking were initially screened at a concentration of 10 μM. The reaction mixtures were prepared in 60 μL volumes and loaded into triplicate wells of black-wall 96-well plates. The assay buffer consisted of 50 mM Tris, 140 mM NaCl, 5 mM KCl, 1 mM CaCl2, 1 mM MgCl2, and 10 μM BSA, with the pH adjusted to 8.0. Each assay contained 4 nM ATX and 1 μM FS-3. The test compounds were diluted in an assay buffer and tested in technical triplicates. […] Fluorescence readings were taken at 2 min intervals over 1 h using excitation and emission wavelengths of 485 and 538 nm. Fluorescence data were collected as relative fluorescence units (RFUs) and averaged for the triplicate samples. A compound was considered an experimentally validated hit if it caused more than 50% inhibition of FS-3 hydrolysis at 10 µM concentration. For dose–response studies, nonlinear regression analysis was performed using GraphPad Prism (GraphPad Software, version 10.0.2 (232), San Diego, CA, USA). A variable four-parameter slope model was applied to fit the data, allowing for determining the Hill slope and interpolation of the IC50 ± SD. Fluorescence measurements were conducted using the CLARIOstar Plus plate reader from BMG Labtech (BMG Labtech, Ortenberg, Baden-Württemberg, Germany). Inhibition assays targeting the ATX-mediated hydrolysis of FS-3 were performed with 45 selected compounds, each at a fixed concentration of 10 μM. Compounds were classified as experimentally validated hits if they achieved more than 50% inhibition of the hydrolysis of the model lysophospholipase D substrate FS-3. From this initial screening, only one compound, ATX-1d, met this criterion (Supplementary Information, Table S1). ATX-1d was then subjected to a dose–response assay to determine its IC50 value (Figure 4). […] BMP-22, a previously validated inhibitor of ATX, was used as a control. The second replicate is shown in the Supplementary Information, Figure S2.

Structure (SMILES) | inhibition at 10 µM
CCN1C(=O)C2C(C)=N[C@](C(=O)OC)(c3cccc(OC)c3)[C@@H]2C1=O (some centres unmarked) [ATX-2d] | 4.61%
CCOC(=O)C1C(C(=O)OCC)C12C(=O)N(C(=O)OC(C)(C)C)c1ccc(Br)cc12 (centres unmarked) [ATX-5g] | -0.48%
COC(=O)C1(c2ccc(Cl)cc2)OC(c2ccc(F)cc2F)C2C(=O)N(c3ccccc3)C(=O)C21 (centres unmarked) [ATX-3c] | -35.9%
CCOC(=O)C1C(C(=O)OCC)C12C(=O)N(C(C)=O)c1ccccc12 (centres unmarked) [ATX-5c] | -4.52%
CCN1C(=O)CC(C2(c3ccccn3)C(=O)N(CC)C(=O)/C2=C(\C(=O)OC)c2ccccc2)C1=O (centres unmarked) [ATX-1b] | 3.59%
CCC1=N[C@](C(=O)OC)(c2ccc(Br)cc2)[C@@H]2C(=O)N(C)C(=O)C12 (some centres unmarked) [ATX-2a] | 19%
CCN1C(=O)C2C(c3cccc(F)c3)OC(C(=O)OC)(c3ccc(C(C)(C)C)cc3)C2C1=O (centres unmarked) [ATX-3h] | -5.76%
COC(=O)C(OCCCCOC1=CC(=O)CC(C)(C)C1)c1ccccc1 (centres unmarked) [ATX-4g] | 32.6%
COC(=O)C(OCCCCOC1=CC(=O)CC(C)(C)C1)c1cccc(C(F)(F)F)c1 (centres unmarked) [ATX-4i] | 15.2%
COC(=O)C(OCCCCOC1=CC(=O)CC(C)(C)C1)c1cccc(F)c1 (centres unmarked) [ATX-4j] | 41.4%
COC(=O)C(OCCCCOC1=CC(=O)CC(C)(C)C1)c1cccc(OC)c1 (centres unmarked) [ATX-4b] | 12.6%
COC(=O)C1(c2ccccc2)OC(c2cccc(OC)c2)C2C(=O)N(c3ccccc3)C(=O)C21 (centres unmarked) [ATX-3g] | -30.1%
COC(=O)C1(c2ccc(Cl)cc2)OC(c2cccc(OC)c2)C2C(=O)N(c3ccccc3)C(=O)C21 (centres unmarked) [ATX-3f] | 5.8%
COC(=O)C1(c2cccc(OC)c2)OC(c2cccc(Cl)c2)C2C(=O)N(Cc3ccccc3)C(=O)C21 (centres unmarked) [ATX-3j] | 16.2%
CCC1=N[C@](C(=O)OC)(c2ccccc2)[C@@H]2C(=O)N(Cc3ccccc3)C(=O)C12 (some centres unmarked) [ATX-2g] | 3.38%
CCC1=N[C@](C(=O)OC)(c2ccc(Br)cc2)[C@@H]2C(=O)N(CC)C(=O)C12 (some centres unmarked) [ATX-2e] | 10.1%
Cc1ccccc1C(OCCCCOC1=CC(=O)CC(C)(C)C1)C(=O)OCc1ccccc1 (centres unmarked) [ATX-4e] | 33.6%
CCN1C(=O)CC(C2(c3ccccn3)C(=O)N(CC)C(=O)/C2=C(\C(=O)OC)c2cccc(OC)c2)C1=O (centres unmarked) [ATX-1h] | 7.6%
COC(=O)C1(c2ccccc2)OC(c2cccc(F)c2)C2C(=O)N(c3ccccc3)C(=O)C21 (centres unmarked) [ATX-3i] | -37.4%
COC(=O)C(OCCCCOC1=CC(=O)CC(C)(C)C1)c1ccc(Br)cc1 (centres unmarked) [ATX-4a] | 18.7%
CCOC(=O)C1C(C(=O)OCC)C12C(=O)N(C(C)=O)c1ccc(C)cc12 (centres unmarked) [ATX-5j] | -10.2%
COC(=O)/C(=C1\C(=O)N(C)C(=O)C1(c1ccccn1)C1CC(=O)N(C)C1=O)c1ccc(C(C)(C)C)cc1 (centres unmarked) [ATX-1a] | 42.5%
CCC1=N[C@](C(=O)OC)(c2cccc(OC)c2)[C@@H]2C(=O)N(C)C(=O)C12 (some centres unmarked) [ATX-2c] | 13%
CCC1=N[C@](C(=O)OC)(c2ccc(Br)cc2)[C@@H]2C(=O)N(Cc3ccccc3)C(=O)C12 (some centres unmarked) [ATX-2b] | 24.9%
COC(=O)C(OCCCCOC1=CC(=O)CC(C)(C)C1)c1cccc(Cl)c1 (centres unmarked) [ATX-4f] | 40.7%
COC(=O)C(OCCCCOC1=CC(=O)CC(C)(C)C1)c1ccc(C(C)(C)C)cc1 (centres unmarked) [ATX-4c] | -19.6%
CCN1C(=O)CC(C2(c3ccccn3)C(=O)N(CC)C(=O)/C2=C(\C(=O)OC)c2ccc(F)cc2)C1=O (centres unmarked) [ATX-1i] | 10%
CCOC(=O)/C(=C1\C(=O)N(C)C(=O)C1(c1ccccn1)C1CC(=O)N(C)C1=O)c1ccc(C)cc1 (centres unmarked) [ATX-1f] | -0.36%
